Series [1] deals with Bacillus subtilis ATCC 6633. An excerpt: (§1) The antibacterial activity of the peptides was initially assessed on a panel of representative Gram-positive and Gram-negative organisms of high clinical relevance and commonly responsible for bacterial infections in both animals and humans. Bacillus subtilis ATCC 6633 (Bsu) was also included as a rod-shaped model Gram-positive organism. This first panel comprised: Enterococcus faecalis ATCC 29212 (Efa); Streptococcus pyogenes ATCC 12344 (Spy); and Staphylococcus aureus ATCC 25923 (Sau); Gram-negative: Escherichia coli CCUGT (Eco), Klebsiella pneumoniae ATCC 13833 (Kpn), Acinetobacter baumannii ATCC 17978 (Aba), and Pseudomonas aeruginosa ATCC 27853 (Pae) (Table 2). Both the minimum inhibitory concentration (MIC, Table 2) and the minimum bactericidal concentration (MBC, Table S1, Supporting Material) were determined.
(§2) The minimum inhibitory concentration (MIC) and the minimum bactericidal concentration (MBC) of the compounds were determined in triplicate using Mueller–Hinton broth (MHB). […] Therefore, we decided to dissolve all peptides in DMSO to a final concentration of 25 mg/mL, for consistency. The bacteria inoculum was 5 × 10^5 CFU/mL, as recommended by CLSI (Document M07-A10, 2015). […] Reference-type strains, including representatives of both Gram-positive bacteria (Bacillus subtilis ATCC 6633, Enterococcus faecalis ATCC 29212, Staphylococcus aureus ATCC 25923, the methicillin-resistant Staphylococcus aureus ATCC 43300 (MRSA), Streptococcus pyogenes ATCC 12344) and Gram-negative bacteria (Escherichia coli CCUGT, Klebsiella pneumoniae ATCC 13833, Pseudomonas aeruginosa ATCC 27853, and Acinetobacter baumannii ATCC 17978), were acquired from ATCC or CCUG culture collections. Other antibiotic-resistant clinical isolates were present in our collection at the University Teaching Hospital (Azienda Ospedaliero-Universitaria Senese ‘Santa Maria alle Scotte’) in Siena, Tuscany, Italy. Specifically, MDR carbapenem-hydrolyzing class D β-lactamase-producing Acinetobacter baumannii and metallo-β-lactamase-producing Pseudomonas aeruginosa were used in this study (Table 4).

The subject of series [2] is Pseudomonas aeruginosa ATCC 27853. As to conditions: for MIC Pae: MHB, 5 × 10^5 CFU/mL, 18 h, 35 °C, triplicate.
Excerpt: as §1, §2

The subject of series [3] is Klebsiella pneumoniae ATCC 13833. As to conditions: for MIC Kpn: MHB, 5 × 10^5 CFU/mL, 18 h, 35 °C, triplicate.
Excerpt: as §1, §2

The test system of series [4] is Enterococcus faecalis ATCC 29212.
Excerpt: as §1, §2

Series [5] has as its system Acinetobacter baumannii ATCC 17978. As to conditions: for MIC Aba: MHB, 5 × 10^5 CFU/mL, 18 h, 35 °C, triplicate.
Excerpt: as §1, §2

The subject of series [6] is Streptococcus pyogenes ATCC 12344.
Excerpt: as §1, §2

A further series concerns Escherichia coli CCUGT. As to conditions: 18 h; for MIC Eco: MHB, 5 × 10^5 CFU/mL, 35 °C, triplicate.
Excerpt: as §1, §2

The subject of series [7] is Staphylococcus aureus ATCC 25923.
Excerpt: as §1, §2

For series [8], the system named is blood agar plate (Columbia CNA Agar). Description: Hemolysis on blood agar plate. The following applies: 35 ± 2 °C, 24 h; for Hemolysis (class): 50 μg peptide (2 μL of 25 mg/mL in DMSO) spotted on blood agar, visual, triplicate; for Hemolysis (d, diameter of hemolysis zone): average of triplicate. The method, then:
Hemolysis zones were visually determined and measured. […] For two additional peptides (6 and 15), only a small hemolysis zone (diameter 4–5 mm) was visible, as compared to that of the positive control (Triton X-100, 13 mm).
Briefly, 2 μL of each peptide solution in DMSO (25 mg/mL), corresponding to 50 μg, was spotted on the surface of a blood agar plate (Columbia CNA Agar, Becton Dickinson Italia S.p.A., Florence, Italy). The plate was then incubated at 35 ± 2 °C for 24 h and visually inspected for the presence of hemolysis zones (see Figure S13, Supplementary Material). The experiment was performed in triplicate. Table 2 reports the average value of the diameter of hemolysis zones measured in each individual experiment. Triton X-100 was used as a positive control (diameter of the hemolysis zone: 13 mm), while DMSO was used as a negative control.
Figure S13. Implementation of the hemolysis test as described in Bechlars et al.. After spotting
2 µL (50 µg) of each compound at a random location on the blood agar plate and incubation at 35 ±
2 °C for 24 h, the plates were manually inspected for the presence of hemolysis zones. Triton X-100
and DMSO were used as the positive and negative controls, respectively. Results were interpreted
(1 picture or pasted object on this page, not shown here)

[9] abbreviates: MHB, 5 × 10^5 CFU/mL, 18 h, 35 °C, triplicate.

Converted amounts (≈) assume the structure as drawn. Like-named read-outs stand apart in the source and are kept apart here. Non-standard residues stand in square brackets, D forms with d. Residues, ends and D or L forms follow the SMILES beside them. *: point of attachment. Octanoyl = CCCCCCCC(=O)*; Api = NC1(C(=O)O)CCNCC1; Aib = CC(C)(N)C(=O)O

In the case of `CCCCCCCC(=O)NC(C)(C)C(=O)NCC(=O)N[C@@H](CC(C)C)C(=O)NC(C)(C)C(=O)N[C@@H](CCCCN)C(=O)NC(C)(C)C(=O)N[C@@H](CC(C)C)C(=O)NC(C)(C)C(=O)NCC(=O)N[C@H](C(=O)N[C@@H](CC(C)C)C(N)=O)[C@@H](C)CC` [Peptide 6b, 1-Oct-Aib-Gly-Leu-Aib-Lys-Aib-Leu-Aib-Gly-Ile-Leu-NH2] (Octanoyl-[Aib]GL[Aib]K[Aib]L[Aib]GIL-NH2), in series [1] (setting [9]), the “MBC Bsu” value stood at 128 µg/mL (≈ 109 µM) and the “MIC Bsu” value was found to be 128 µg/mL (≈ 109 µM). Also, in series [2], the “MIC Pae” value was above 128 µg/mL. For the same compound, in series [3], the “MIC Kpn” value is above 128 µg/mL. Besides, in [4] (setting [9]), the “MBC Efa” value came to 128 µg/mL (≈ 109 µM) and the “MIC Efa” value came out at 128 µg/mL (≈ 109 µM). The “MIC Aba” value in [5] is above 128 µg/mL. Also, in [6] (setting [9]), the “MBC Spy” value worked out at 32 µg/mL (≈ 27.2 µM) and the “MIC Spy” value was 8 µg/mL (≈ 6.79 µM). For the same compound, the “MIC Eco” value against Escherichia coli CCUGT was above 128 µg/mL. Also, in series [7] (setting [9]), the “MBC Sau” value turned out to be 128 µg/mL (≈ 109 µM) and the “MIC Sau” value came to 128 µg/mL (≈ 109 µM). The “Hemolysis (class)” value in series [8] is listed as “-”.

For `CCCCCCCC(=O)NC(C)(C)C(=O)NCC(=O)N[C@@H](CC(C)C)C(=O)NC(C)(C)C(=O)NCC(=O)NCC(=O)N[C@@H](CC(C)C)C(=O)NC1(C(=O)NCC(=O)N[C@H](C(=O)N[C@@H](CC(C)C)C(N)=O)[C@@H](C)CC)CCNCC1` [Peptide 8, 1-Oct-Aib-Gly-Leu-Aib-Gly-Gly-Leu-Api-Gly-Ile-Leu-NH2] (Octanoyl-[Aib]GL[Aib]GGL[Api]GIL-NH2), the “MIC Bsu” value in [1] (setting [9]) is 32 µg/mL (≈ 28.6 µM). Moreover, the “MIC Pae” value in [2] was above 128 µg/mL. Further, the “MIC Kpn” value in series [3] was above 128 µg/mL. In [4] (setting [9]), the “MIC Efa” value was 16 µg/mL (≈ 14.3 µM). In addition, the “MIC Aba” value in [5] is above 128 µg/mL. In series [6] (setting [9]), the “MIC Spy” value is 16 µg/mL (≈ 14.3 µM). Further, the “MIC Eco” value in the series on Escherichia coli CCUGT is above 128 µg/mL. In series [7] (setting [9]), the “MIC Sau” value was above 128 µg/mL. Also, in series [8], the “Hemolysis (class)” value is “+”. In [8] (50 μg spotted on blood agar), the “Hemolytic activity (in words)” value was “hemolytic activity” and the “Hemolysis (d, diameter of hemolysis zone)” value is on record as 7 mm.

For the compound `CCCCCCCC(=O)NC(C)(C)C(=O)N[C@@H](CCCCN)C(=O)N[C@@H](CC(C)C)C(=O)N[C@@H](CC(C)C)C(N)=O` [Peptide 15, 1-Oct-Aib-Lys-Leu-Leu-NH2] (Octanoyl-[Aib]KLL-NH2), the “MBC Bsu” value in series [1] (ATCC 6633, 18 h) is 32 µg/mL (≈ 54.9 µM). Moreover, the “MIC Bsu” value in series [1] (setting [9]) amounted to 16 µg/mL (≈ 27.5 µM). Also, the “MBC Pae” value in series [2] (ATCC 27853, 18 h) is above 128 µg/mL. Also, the “MIC Pae” value in series [2] was 64 µg/mL (≈ 110 µM). Besides, the “MBC Kpn” value in series [3] (ATCC 13833, 18 h) is above 128 µg/mL. In addition, the “MIC Kpn” value in [3] was 64 µg/mL (≈ 110 µM). Moreover, the “MBC Efa” value in series [4] (ATCC 29212, 18 h) stood at 32 µg/mL (≈ 54.9 µM). The “MIC Efa” value in series [4] (setting [9]) was found to be 32 µg/mL (≈ 54.9 µM). Besides, in series [5] (ATCC 17978, 18 h), the “MBC Aba” value was 128 µg/mL (≈ 220 µM). For the same compound, the “MIC Aba” value in series [5] was 64 µg/mL (≈ 110 µM). The “MBC Spy” value in series [6] (ATCC 12344, 18 h) was found to be 16 µg/mL (≈ 27.5 µM). Also, the “MIC Spy” value in series [6] (setting [9]) was found to be 16 µg/mL (≈ 27.5 µM). Also, the “MBC Eco” value in the series with Escherichia coli CCUGT (CCUGT) was above 128 µg/mL. Also, in the series on Escherichia coli CCUGT, the “MIC Eco” value was 64 µg/mL (≈ 110 µM). Moreover, the “MBC Sau” value in series [7] (ATCC 25923, 18 h) was above 128 µg/mL. For the same compound, the “MIC Sau” value in [7] (setting [9]) is 64 µg/mL (≈ 110 µM). For the same compound, in series [8] (50 μg spotted on blood agar), the “Hemolysis (d, diameter of hemolysis zone)” value is reported as 5 mm.

Values taken from article PMC10178204, “Peptaibol Analogs Show Potent Antibacterial Activity against Multidrug Resistant Opportunistic Pathogens” (International Journal of Molecular Sciences, 2023).
